The values below come from patent US9101539B2, “Intranasal pharmaceutical compositions with improved pharmacokinetics” (SHIN NIPPON BIOMEDICAL LABORATORIES, LTD., priority 2009, dated 2015).

Broadly, the Tmax is the time from dosing to the highest level. As usually defined, the Cmax is the highest concentration seen after dosing.

SMILES strings stand for the structures.

One series is described as follows: in vivo. The conditions noted are these: rhesus monkey, inhaled or intranasal. Here is the method:
Blood was obtained at 10, 20, 30, 60, 120, 240, and 480 minutes post-administration from the monkeys administered the solid dosage form. For the monkeys treated with the nasal spray, blood was obtained 5, 10, 20, 30, 60, 120, 240, and 480 minutes post-treatment.
Blood was obtained at 5, 10, 20, 30, 60, 120, and 240 minutes post-administration.
Administered dose was 6 mg/animal. […] Blood was obtained at 5, 10, 20, 30, 60, 120, and 240 minutes post-administration.
(§1) Administered dose was 6 mg/animal. […] Administered dose was 6 mg/animal. Blood was obtained at 5, 10, 20, 30, 60, 120, and 240 minutes post-administration.
Total dose was 6 mg/animal. Blood was obtained at 5, 10, 20, 30, 60, 120, and 240 minutes post-administration.
as §1, §1
(§2) Administered dose was 6 mg/animal. […] Administered dose was 6 mg/animal. […] Blood was obtained at 5, 10, 20, 30, 60, 120, and 240 minutes post-administration.
as §2

Series [1] in a line: Zolmitriptan pharmacokinetics (plasma concentration versus time) in rhesus monkeys. The class given is in vivo. The conditions noted are these: 5 mg/animal; for Tmax: intranasal dry powder, n=2. Here is the method:
The pharmacokinetics of a zolmitriptan liquid nasal spray and a dry powder formulation were studied in two groups of rhesus monkeys. One group, n=2, was administered a nasal spray of zolmitriptan (Zomig®, 5 mg/100 μl in an aqueous buffered solution). A second, n=2, was administered intranasal zolmitriptan freebase with a particle size of <15 μm. The administered dose was 5 mg/animal.
One group, n=2, was administered intranasal zolmitriptan freebase with a particle size of <15 μm. Administered dose was 5 mg/animal. […] Administered dose was 5 mg/animal.

Where [2] appears, read: intranasal dry powder <15 μm, versus Zomig nasal spray.

Turning to `CNS(=O)(=O)Cc1ccc2[nH]cc(CCN(C)C)c2c1` [sumatriptan freebase], in “in vivo”, the “Cmax among the formulations tested that contained freebase” value is reported as “highest”.

For `CN(C)CCc1c[nH]c2ccc(C[C@H]3COC(=O)N3)cc12` [zolmitriptan freebase], in series [1] (setting [2]), the “BA compared with the liquid spray” value is reported as “significantly increased” and the “Cmax compared with the liquid spray” value is “significantly increased”. For the same molecule, in series [1] (50% of the particles <15 μm and 50% 38 μm-100 μm), the Tmax turned out to be 20 min. In addition, the Tmax in series [1] (particle size <15 μm) is 10 min.

Take `CNS(=O)(=O)Cc1ccc2[nH]cc(CCN(C)C)c2c1` [sumatriptan succinate]: the highest level in the series “in vivo” (6 mg, Cmax) (Cmax) was 696 ng/mL. Further, the Tmax in “in vivo” (6 mg, Tmax) is 7.5 min.
